Columns and labels:
[1] = biological target: T1, lipase enzyme (Thermomyces lanuginosus, UniProt O59952, N255R/T253R); experiment: Washing test: total hydrolysis of rapeseed oil on a polyester swatch by lipase-containing washing liquor, free oleic acid quantified by HPLC; format: biochemical; conditions: about 100 ppm by weight surfactant, lipase concentrate about 0.2 g/l, pH about 9.6, about 50° C., water hardness 2 fH
T1 construct: purchased Novozymes LIPEX 100 L
Description: The total hydrolysis of rapeseed oil in a wash process was tested with washing liquors that were always comprising the same concentration of a lipase enzyme concentrate. A blank test was performed without any added surfactant. This blank test served as the reference with which could be compared the other results obtained with the same washing liquor samples into which one of a number of different non-ionic surfactants were added.
In the experiments, the lipase concentrate was always present in a concentration of about 0.2 gram of the concentrate per litre of total liquor.
The washing tests were performed at a temperature of about 50° C. The water in the formulations was demineralised water obtained by reverse osmosis (RO).
Different washing liquors were prepared containing about 100 ppm by weight of a selected surfactant, to be compared with a blank liquor containing only the lipase enzyme concentrate and no surfactants.
For each liquor was tested the appearance of free oleic acid generated from the hydrolysis of a standard amount of rapeseed oil with which the liquor was brought in contact. Monitored by High Performance Liquid Chromatography (HPLC) was the quantitative release of free oleic acid (C18:1 fatty acid) in the washing liquor and/or present on the textile, as explained as part of the protocols below. Because oleic acid is the main fatty acid in the triglycerides of rapeseed oil, the generation of this acid as free fatty acid it is an excellent quantitative marker for the hydrolysis of rapeseed oil, in this context thus also for the activity of the lipase enzyme.
A series of tests were performed using water having a hardness of 2 fH. […] For each surfactant choice 2 duplicate samples were tested, except for Sample J (3 duplicates) and Sample K (only 1 sample tested). […] Also shown for each bar with a surfactant is an error bar showing the difference between the lowest and the highest of the duplicates.
The washing tests consisted of contacting at 50° C. a washing liquor containing the selected surfactant together with 0.2 grams per litre of the lipase enzyme concentrate and having a pH of 9.6 with a polyester swatch type W30-A (PES W30-A textile swatch obtained from the company Center For Testmaterials BV (NL)) that has been pre-treated with an amount of rapeseed oil such that the textile swatch contained about 1.5 grams of rapeseed oil on a total weight of slightly over 8 grams of pre-treated swatch.
The pre-treatment consisting of distributing a generous amount of rapeseed oil over the swatch by means of a paint roller. After applying the rapeseed oil onto the swatch, the impregnated swatch was left to dry for 48 hours between two layers of textile for assuring saturation and for absorbing the excess, after which the swatch was weighed on an analytical balance. The difference with the weight of the swatch before applying the rapeseed oil provides the amount of rapeseed oil that was present on the swatch.
In a 600 ml beaker is introduced 500 grams of the stock solution that was prepared in step 2, and this is brought up to a temperature of […] under stirring by means of a mixer submerged close to the bottom of the beaker at about 200 rpm. To this stock solution is then added 100 microliter (“μl”) of the concentrate of the lipase enzyme. Into this warm solution is then introduced the textile (i.e. the pre-treated PES swatch) to be tested, and the time counting of 10 minutes is started. Where a surfactant should be included, 50 milligram thereof is added into the beaker prior to introducing the lipase enzyme and of the textile.
After the 10 minutes contacting time provided in part 1, about 30 grams of the wash water (or wash liquor) is introduced into the 250 ml beaker containing the buffer solution and the formic acid. The formic acid serves to inactivate the lipase enzyme, so that the reaction is stopped. The total weight of the beaker content is noted and should be ±35 grams.
The dried textile is first weighed. […]

[2] = biological target: T1, lipase enzyme; experiment: as above; format: biochemical; conditions: Example 5, surfactant concentration series

T1 sequence (O59952 23-291 T253R/N255R): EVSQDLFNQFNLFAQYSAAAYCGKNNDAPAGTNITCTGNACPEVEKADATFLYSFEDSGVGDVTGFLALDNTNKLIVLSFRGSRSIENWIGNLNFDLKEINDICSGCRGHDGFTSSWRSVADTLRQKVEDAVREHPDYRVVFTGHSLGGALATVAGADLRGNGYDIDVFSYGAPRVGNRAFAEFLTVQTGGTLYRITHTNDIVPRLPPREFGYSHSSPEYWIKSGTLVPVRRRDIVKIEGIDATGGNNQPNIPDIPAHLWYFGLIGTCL

Substance | effect of the surfactant on lipase activity in the washing liquor (in words, FIG. 1) [1] | also measured
5EO-C13-C15 [M] | relatively benign | –
5EO-isoC13 | not better than the conventional LES surfactant | surfactant concentration at which the suppressing activity already becomes noticeable [2]: 10 ppm by weight; surfactant concentration until which the suppressing effect further grows (about the same up to 250 ppm by weight) [2]: about 100 ppm by weight
7EO-C13-15 [N] | much larger depressing effect | –
7EO-isoC13 [F] | not better than the conventional LES surfactant | –
9EO-isoC13 [G] | not better than the conventional LES surfactant | –
10EO-isoC13 [H] | not better than the conventional LES surfactant | –
C8-C10 APG-DP of 1.7 [Sample K] | much lower depressing effect | –
C8-C10 alkyl polyglucoside (APG) with an average degree of polymerisation (DP) of 1.5 | much lower depressing effect | –
C8-C16 APG-DP of 1.5 [Sample J] | much lower depressing effect | –
C9-C11 fatty alcohol alkoxylated with an average ethoxylation degree of about 6 and an average propoxylation degree of about 4 [Sample O] | worse than the LES reference | –
C12-C14 amine oxide [P] | significant boost | –
Linear Alkyl Benzene Sulphonate [Sample B] | – | relative lipase activity relative to the blank liquor (A) set at 100% ([1]; 10 minute washing test): 12%
a mixture of linear C13-C15 alcohol that has been ethoxylated to an average degree of about 3 | relatively benign | –
isotridecyl alcohol ethoxylated to an average degree of ethoxylation of about 3 | not better than the conventional LES surfactant | –

From patent US20240318102A1, “IMPROVED ENZYME-CONTAINING ADDITIVE AND DETERGENT LIQUOR FORMULATIONS” (priority 2021, published 2024)
